From paper PMC6934184, “Selective DNA-PKcs inhibition extends the therapeutic index of localized radiotherapy and chemotherapy” (The Journal of Clinical Investigation, 2019) come the findings set out here.

SMILES strings stand for the structures.

The inhibition is the share of the control response that was lost under treatment.

In this test the target is T1, KIT (Homo sapiens, UniProt P10721).
T1 construct: purchased Thermo Fisher Scientific (Life Technologies) SelectScreen
Nature of the test: SelectScreen Z'LYTE. Format: biochemical. The gist of the method:
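NU5455 was profiled across the SelectScreen Broad panel of kinase activity and binding assays. Z'LYTE reactions such as CSF1R ran at apparent Km ATP, while the Adapta CAMK1 assay used ATP listed as 10. Values are given as percent.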

T1 sequence (P10721 26-976): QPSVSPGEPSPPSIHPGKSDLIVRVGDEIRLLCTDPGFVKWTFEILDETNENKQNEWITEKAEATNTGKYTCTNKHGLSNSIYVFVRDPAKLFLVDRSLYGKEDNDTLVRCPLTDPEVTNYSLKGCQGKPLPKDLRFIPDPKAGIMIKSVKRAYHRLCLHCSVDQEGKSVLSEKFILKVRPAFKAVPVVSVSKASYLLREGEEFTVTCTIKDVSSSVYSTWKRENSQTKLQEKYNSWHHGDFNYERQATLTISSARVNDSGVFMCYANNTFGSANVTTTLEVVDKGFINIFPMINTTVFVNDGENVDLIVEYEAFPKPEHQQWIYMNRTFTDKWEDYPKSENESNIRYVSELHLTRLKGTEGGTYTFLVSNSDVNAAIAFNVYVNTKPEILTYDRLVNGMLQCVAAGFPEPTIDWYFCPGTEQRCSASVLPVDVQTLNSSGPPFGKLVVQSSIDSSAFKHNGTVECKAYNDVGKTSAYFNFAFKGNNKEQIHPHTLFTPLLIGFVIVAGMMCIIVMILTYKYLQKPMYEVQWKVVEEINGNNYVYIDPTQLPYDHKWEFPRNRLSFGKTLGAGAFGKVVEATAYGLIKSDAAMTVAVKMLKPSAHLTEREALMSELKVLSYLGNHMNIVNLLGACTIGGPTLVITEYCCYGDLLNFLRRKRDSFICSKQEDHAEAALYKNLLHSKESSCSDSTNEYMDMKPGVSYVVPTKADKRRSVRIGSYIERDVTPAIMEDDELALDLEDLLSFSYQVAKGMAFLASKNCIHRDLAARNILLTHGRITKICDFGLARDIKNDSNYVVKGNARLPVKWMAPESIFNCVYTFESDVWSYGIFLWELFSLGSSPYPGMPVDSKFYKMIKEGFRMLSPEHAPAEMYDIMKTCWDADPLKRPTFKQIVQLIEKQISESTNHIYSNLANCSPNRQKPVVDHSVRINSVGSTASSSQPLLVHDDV

The compound `CN(C(=O)CN1CCOCC1)c1ccc2sc3c(-c4cccc5c(=O)cc(N6CC7CCC(C6)O7)oc45)cccc3c2c1` [NU5455] had an inhibition at 1 µM of 5.3%.
